The source of these data is US20260176266A1, “PIPERIDINOPYRIMIDINE DERIVATIVE, PREPARATION METHOD THEREFOR AND USE THEREOF IN MEDICINE” (TUOJIE BIOTECH (SHANGHAI) CO., LTD., priority 2022, published 2026).

The term IC50 denotes the concentration that inhibits the measured activity by half.

Experiment [1] has as its system OVCAR3 ovarian cancer cells. Kind of experiment: Inhibitory activity against ovarian cancer cells (OVCAR3), CellTiter-Glo viability. The class given is cell-based. The following applies: Homo sapiens, OVCAR-3, 120 h, OVCAR3, 5 days treatment. The method, then: OVCAR3 ovarian cancer cells were cultured in a cell incubator at […] with 5% CO2 using RPMI 1640 medium with […]. On the first day, the cells were plated in a 96-well plate at a cell concentration of 2500 cells/well and cultured overnight in the incubator. On the second day, the cells were treated with compounds. The maximum compound concentration was 10 μM and was 3-fold diluted to obtain 9 concentrations, and the final concentration of DMSO was 0.1%. After the cells were cultured in the incubator for another 5 days, cell viability was tested using the Celltiter Glo assay kit (Promega), and the testing method was consistent with the operational method provided by the kit. Data were processed using GraphPad Prism 8, and IC50 was calculated.
(§1) [formula] • X: the logarithm of the compound concentration; Y: % inhibition.
(In general: ATP-based viability assays read luminescence as a measure of living cells.)

Experiment [2] has as its system HCC1806 breast cancer cells. Kind of experiment: Inhibitory activity against tumor cells, CellTiter-Glo: HCC1806. It counts as cell-based. As to conditions: Homo sapiens, 168 h, HCC1806, 7 days treatment. The protocol: (§2) MCF7 (ATCC #HTB-22) and T47D (ATCC #HTB-133) breast cancer cells and PANC-1 (ATCC #CRL-1469) pancreatic cancer cells were purchased from ATCC. MDA-MB-231 (Cobioer #CBP60382), HCC1806 (Cobioer #CBP60373), and MDA-MB-468 (Cobioer #CBP60387) breast cancer cells, HCT-116 (Cobioer #CBP60028) colorectal cancer cells, and OCI-AML-3 (Cobioer #CBP60817) and MV-4-11 (Cobioer #CBP60522) leukemia cells were purchased from Nanjing Cobioer Biosciences Co., Ltd.
(§3) OCI-AML-3 was cultured in RPMI 1640 medium with 20% FBS; HCC1806 and T47D were cultured in RPMI 1640 medium with 10% FBS; MCF7, MDA-MB-231, MDA-MB-468, and PANC-1 were cultured in DMEM medium with 10% FBS; MV-4-11 was cultured in IMDM medium with 20% FBS; HCT-116 was cultured in MC′5A medium with 10% FBS.
(§4) Palbociclib-resistant cells were constructed on MCF7 parent cells, designated MCF7 Palbo-R, and the culture conditions were consistent with those of the parent cells. All tumor cells were cultured in a cell incubator at 37° C. with 5% CO2. The cells were seeded at corresponding cell densities (600 cells/well for MDA-MB-231; 500 cells/well for MDA-MB-468, PANC-1, and HCT-116; 200 cells/well for MCF7 and HCC1806; 800 cells/well for MCF7 Palbo-R; 3000 cells/well for OCI-AML-3 and MV-4-11) in 384-well plates and cultured overnight in the incubator. On the second day, the cells were treated with compounds. The maximum compound concentration was 10 μM and was 3-fold diluted to obtain 9 concentrations, each tested in duplicate, and the final concentration of DMSO was 0.1%. The cells continued to be cultured in the incubator, with MDA-MB-231, PANC-1, MDA-MB-468, OCI-AML-3, and MV-4-11 being treated with drugs for 5 days and HCC1806, MCF7, MCF7 Palbo-R, and HCT116 being treated with drugs for 7 days. Cell viability was tested using the Celltiter Glo assay kit (Promega), and the testing method was consistent with the operational method provided by the kit. Readings were taken using an Envision multimode microplate reader. Data were processed using GraphPad Prism 8, and IC50 was calculated. […]

In another experiment the target is CDK7/Cyclin H/MAT1 (Homo sapiens, UniProt P50613). Kind of experiment: ADP-Glo kinase assay, CDK7. It counts as biochemical. The following applies: for IC50: 80 nM CDK7/Cyclin H/MAT1, 70 μM ATP (Km), MBP, 60 min, read-out: inhibitory activity (IC50, nM) CDK7; for selectivity for CDK2/CDK7 compared with Janssen-01: from IC50 of Table 6, statement in words. The protocol: (§5) The ADP-Glo kinase assay was used for testing the activity of CDKs. The compounds were diluted in 384-well plates using Echo. The starting concentration was 10 μM and was 3-fold diluted to obtain 10 concentration points, each tested in duplicate, and the final concentration of DMSO in the assay system was 1%. CDK solutions (the final concentrations were 16.5 nM CDK1/CyclinB, 1 nM CDK2/CyclinE1, 16.3 nM CDK4/CyclinD1, 11.5 nM CDK5/p25, 15.7 nM CDK6/CyclinD3, 80 nM CDK7/Cyclin H/MAT1, 15.3 nM CDK9/Cyclin T1, and 150 nM CDK12/CyclinK) prepared in assay buffer were added at 2.5 μL, and the enzymes and compounds were pre-incubated at room temperature for 10 min. ATP (the concentration was Km) & substrate solutions (20 μM ATP & 0.1 mg/mL Histone H1 Protein for CDK1/CyclinB, 15 μM ATP & 0.1 mg/mL Histone H1 Protein for CDK2/CyclinE1, 200 μM ATP & 0.2 mg/mL DYRKtide peptide for CDK4/CyclinD1, 10 μM ATP & 0.1 mg/mL Histone H1 Protein for CDK5/p25, 200 μM ATP & 0.1 mg/mL Histone H1 Protein for CDK6/CyclinD3, 70 μM ATP & 0.2 mg/mL MBP for CDK7/Cyclin H/MAT1, 60 μM ATP & 0.2 mg/mL PDKtide for CDK9/Cyclin T1, and 20 μM ATP & 80 μM pS7-CTD peptide for CDK12/CyclinK) prepared in assay buffer were added at 2.5 μL. After thorough mixing, the plates were incubated at room temperature, with CDK1/4/9/12/13 incubated for 120 min and CDK2/5/6/7 incubated for 60 min. ADP-Glo reagents were added at 4 μL, and the plates were incubated at room temperature for 40 min. Kinase detection reagents were added at 8 μL, and the plates were incubated at room temperature for 40 min. Readings were taken using an Envision multimode microplate reader. Data were processed using GraphPad Prism 8, and IC50 was calculated.
as §1
In general terms: In ADP-Glo the light output rises with the ADP produced.

In experiment [3] the test system is PANC-1 pancreatic cancer cells. The experiment is described as follows: Inhibitory activity against tumor cells, CellTiter-Glo: PANC-1. It counts as cell-based. The following applies: Homo sapiens, 120 h, PANC-1, 5 days treatment. The method, then: as §2, §3, §4
The test system of experiment [4] is HCT-116 colorectal cancer cells. The experiment is described as follows: Inhibitory activity against tumor cells, CellTiter-Glo: HCT-116. The class given is cell-based. The following applies: Homo sapiens, 168 h, HCT-116, 7 days treatment. The protocol: as §2, §3
(§6) Palbociclib-resistant cells were constructed on MCF7 parent cells, designated MCF7 Palbo-R, and the culture conditions were consistent with those of the parent cells. All tumor cells were cultured in a cell incubator at 37° C. with 5% CO2. The cells were seeded at corresponding cell densities (600 cells/well for MDA-MB-231; 500 cells/well for MDA-MB-468, PANC-1, and HCT-116; 200 cells/well for MCF7 and HCC1806; 800 cells/well for MCF7 Palbo-R; 3000 cells/well for OCI-AML-3 and MV-4-11) in 384-well plates and cultured overnight in the incubator. On the second day, the cells were treated with compounds. The maximum compound concentration was 10 μM and was 3-fold diluted to obtain 9 concentrations, each tested in duplicate, and the final concentration of DMSO was 0.1%. The cells continued to be cultured in the incubator, with MDA-MB-231, PANC-1, MDA-MB-468, OCI-AML-3, and MV-4-11 being treated with drugs for 5 days and HCC1806, MCF7, MCF7 Palbo-R, and HCT116 being treated with drugs for 7 days. Cell viability was tested using the Celltiter Glo assay kit (Promega), and the testing method was consistent with the operational method provided by the kit. Readings were taken using an Envision multimode microplate reader. Data were processed using GraphPad Prism 8, and IC50 was calculated.
(§7) Y=Bottom+(Top−Bottom)/(1+10^((Log IC50−X)×HillSlope)). Calculation formula: • X: the logarithm of the compound concentration; Y: % inhibition.

The target in the next experiment is CDK5/p25 (Homo sapiens, UniProt Q00535). Kind of experiment: ADP-Glo kinase assay, CDK5. The class given is biochemical. As to conditions: 11.5 nM CDK5/p25, 10 μM ATP (Km), Histone H1, 60 min; read-out: inhibitory activity (IC50, nM) CDK5. The protocol: as §5, with “After thorough mixing, the plates were incubated at room temperature, with CDK1/4/9/12/13 incubated for 120 min and CDK2/5/6/7 incubated for 60 min. ADP-Glo reagents were added at 4 μL, and the plates were incubated at room temperature for 40 min. Kinase detection reagents were added at 8 μL, and the plates were incubated at room temperature for 40 min.” left out, “calculated. […]” for “calculated.”

The next experiment deals with various tumor cell lines. The experiment is described as follows: Inhibitory activity against tumor cells, summary over the panel of Tables 4 and 5. The class given is cell-based. The following applies: summary of Tables 4 and 5. The protocol:
as §2, §3, §6, §7

The next experiment addresses CDK12/CyclinK (Homo sapiens, UniProt Q9NYV4). Kind of experiment: ADP-Glo kinase assay, CDK12. The class given is biochemical. As to conditions: 150 nM CDK12/CyclinK, 20 μM ATP (Km), pS7-CTD peptide, 120 min; read-out: inhibitory activity (IC50, nM) CDK12. The method, then: as §5, with “After thorough mixing, the plates were incubated at room temperature, with CDK1/4/9/12/13 incubated for 120 min and CDK2/5/6/7 incubated for 60 min. ADP-Glo reagents were added at 4 μL, and the plates were incubated at room temperature for 40 min. Kinase detection reagents were added at 8 μL, and the plates were incubated at room temperature for 40 min.” left out, “calculated. […]” for “calculated.”

Sequence of CDK7/Cyclin H/MAT1 (P50613 whole entry, species assumed): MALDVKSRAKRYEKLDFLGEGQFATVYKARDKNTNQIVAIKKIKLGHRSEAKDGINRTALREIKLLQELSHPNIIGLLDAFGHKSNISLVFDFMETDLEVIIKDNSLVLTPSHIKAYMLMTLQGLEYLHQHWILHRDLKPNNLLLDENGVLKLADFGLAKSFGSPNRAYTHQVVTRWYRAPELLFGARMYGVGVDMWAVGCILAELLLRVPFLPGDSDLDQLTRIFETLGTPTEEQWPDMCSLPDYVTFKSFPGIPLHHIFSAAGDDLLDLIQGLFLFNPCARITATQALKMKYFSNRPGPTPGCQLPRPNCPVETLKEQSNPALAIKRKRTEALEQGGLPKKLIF
Sequence of CDK7/Cyclin H/MAT1 (P51946 whole entry partner, species assumed): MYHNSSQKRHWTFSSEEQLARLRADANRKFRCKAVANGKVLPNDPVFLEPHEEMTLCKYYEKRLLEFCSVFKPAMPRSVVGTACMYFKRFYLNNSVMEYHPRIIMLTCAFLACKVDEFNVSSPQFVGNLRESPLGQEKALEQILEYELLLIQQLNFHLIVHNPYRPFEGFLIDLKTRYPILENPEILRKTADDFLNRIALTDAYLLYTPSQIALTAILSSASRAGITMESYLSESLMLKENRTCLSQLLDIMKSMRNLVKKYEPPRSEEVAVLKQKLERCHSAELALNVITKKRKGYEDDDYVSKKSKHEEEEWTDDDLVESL
Sequence of CDK7/Cyclin H/MAT1 (P51948 whole entry partner, species assumed): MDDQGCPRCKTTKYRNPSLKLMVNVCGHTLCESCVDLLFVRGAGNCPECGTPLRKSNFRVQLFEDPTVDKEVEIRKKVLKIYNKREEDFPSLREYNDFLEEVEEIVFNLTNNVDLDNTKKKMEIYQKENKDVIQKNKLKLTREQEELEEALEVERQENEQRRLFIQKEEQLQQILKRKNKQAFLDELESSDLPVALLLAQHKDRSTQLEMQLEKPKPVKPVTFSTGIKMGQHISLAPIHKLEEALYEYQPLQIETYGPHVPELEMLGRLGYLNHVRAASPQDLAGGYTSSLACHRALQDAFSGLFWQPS
Sequence of CDK5/p25 (Q00535 whole entry, species assumed): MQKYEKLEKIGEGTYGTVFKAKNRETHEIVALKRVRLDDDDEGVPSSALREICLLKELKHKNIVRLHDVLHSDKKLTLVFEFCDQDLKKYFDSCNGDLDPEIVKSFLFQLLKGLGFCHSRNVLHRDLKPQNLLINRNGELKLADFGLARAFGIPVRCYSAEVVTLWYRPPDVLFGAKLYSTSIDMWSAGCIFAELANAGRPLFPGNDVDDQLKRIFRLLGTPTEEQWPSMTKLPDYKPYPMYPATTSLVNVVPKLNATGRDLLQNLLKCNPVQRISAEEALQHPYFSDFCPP
Sequence of CDK5/p25 (Q15078 99-307 partner limits assumed, species assumed): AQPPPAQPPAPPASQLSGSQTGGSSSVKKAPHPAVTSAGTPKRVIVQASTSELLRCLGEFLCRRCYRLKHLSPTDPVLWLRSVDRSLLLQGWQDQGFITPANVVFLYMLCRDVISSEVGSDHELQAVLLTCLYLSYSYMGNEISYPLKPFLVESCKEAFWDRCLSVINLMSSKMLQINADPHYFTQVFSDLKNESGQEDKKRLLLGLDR
Sequence of CDK12/CyclinK (Q9NYV4 whole entry, species assumed): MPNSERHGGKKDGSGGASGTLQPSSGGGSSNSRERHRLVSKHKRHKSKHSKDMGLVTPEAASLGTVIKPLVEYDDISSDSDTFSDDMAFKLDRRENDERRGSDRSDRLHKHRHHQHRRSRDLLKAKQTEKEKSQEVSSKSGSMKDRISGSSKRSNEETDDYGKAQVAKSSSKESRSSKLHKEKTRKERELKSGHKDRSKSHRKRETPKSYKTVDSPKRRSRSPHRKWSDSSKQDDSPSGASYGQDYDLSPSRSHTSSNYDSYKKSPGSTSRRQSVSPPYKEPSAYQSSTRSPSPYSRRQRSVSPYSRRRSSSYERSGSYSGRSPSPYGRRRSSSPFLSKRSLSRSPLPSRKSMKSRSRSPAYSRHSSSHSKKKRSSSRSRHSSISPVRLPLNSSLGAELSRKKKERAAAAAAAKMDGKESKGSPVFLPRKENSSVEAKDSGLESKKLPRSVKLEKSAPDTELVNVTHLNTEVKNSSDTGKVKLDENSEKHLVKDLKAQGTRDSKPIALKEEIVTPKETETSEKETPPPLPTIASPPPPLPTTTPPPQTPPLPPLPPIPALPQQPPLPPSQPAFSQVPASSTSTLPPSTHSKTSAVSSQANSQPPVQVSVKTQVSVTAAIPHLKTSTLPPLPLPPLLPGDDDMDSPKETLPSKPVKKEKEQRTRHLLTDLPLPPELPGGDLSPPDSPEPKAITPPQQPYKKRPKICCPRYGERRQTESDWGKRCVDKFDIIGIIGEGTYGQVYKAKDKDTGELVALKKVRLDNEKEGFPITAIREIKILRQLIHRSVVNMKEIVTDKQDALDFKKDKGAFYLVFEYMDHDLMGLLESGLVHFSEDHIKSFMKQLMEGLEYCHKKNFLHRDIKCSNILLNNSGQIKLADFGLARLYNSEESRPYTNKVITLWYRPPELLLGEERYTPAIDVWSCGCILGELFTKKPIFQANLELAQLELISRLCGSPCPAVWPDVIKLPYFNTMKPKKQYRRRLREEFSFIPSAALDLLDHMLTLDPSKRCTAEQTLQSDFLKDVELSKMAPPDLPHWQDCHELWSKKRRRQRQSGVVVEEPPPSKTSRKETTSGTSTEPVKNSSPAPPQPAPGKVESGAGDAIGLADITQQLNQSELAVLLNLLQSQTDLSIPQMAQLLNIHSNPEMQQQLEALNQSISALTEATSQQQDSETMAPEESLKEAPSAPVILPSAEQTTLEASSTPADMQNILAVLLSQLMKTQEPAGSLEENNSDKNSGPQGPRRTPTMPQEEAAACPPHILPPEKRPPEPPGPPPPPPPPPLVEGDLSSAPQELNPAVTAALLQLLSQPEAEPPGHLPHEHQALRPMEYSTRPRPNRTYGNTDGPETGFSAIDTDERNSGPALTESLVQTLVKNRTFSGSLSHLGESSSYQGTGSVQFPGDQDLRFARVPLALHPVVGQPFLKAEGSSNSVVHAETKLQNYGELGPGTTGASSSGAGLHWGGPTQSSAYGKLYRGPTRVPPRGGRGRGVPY
Sequence of CDK12/CyclinK (O75909 whole entry partner, species assumed): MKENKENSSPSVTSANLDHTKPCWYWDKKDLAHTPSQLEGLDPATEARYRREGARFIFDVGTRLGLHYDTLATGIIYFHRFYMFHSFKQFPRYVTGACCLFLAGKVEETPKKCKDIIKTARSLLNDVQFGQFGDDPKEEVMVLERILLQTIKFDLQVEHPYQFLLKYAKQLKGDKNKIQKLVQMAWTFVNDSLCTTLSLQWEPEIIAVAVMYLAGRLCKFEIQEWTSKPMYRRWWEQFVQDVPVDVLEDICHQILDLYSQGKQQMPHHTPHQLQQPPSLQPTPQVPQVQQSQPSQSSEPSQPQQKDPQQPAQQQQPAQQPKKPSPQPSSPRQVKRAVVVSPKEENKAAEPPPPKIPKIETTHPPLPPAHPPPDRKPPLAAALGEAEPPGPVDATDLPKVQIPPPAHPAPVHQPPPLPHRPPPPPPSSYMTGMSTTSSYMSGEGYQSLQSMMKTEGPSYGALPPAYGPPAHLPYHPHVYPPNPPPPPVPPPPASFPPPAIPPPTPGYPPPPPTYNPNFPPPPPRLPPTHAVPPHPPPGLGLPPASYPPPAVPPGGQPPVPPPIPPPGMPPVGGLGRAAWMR

As to `C[C@@H]1Cc2cnc(NCc3ccn(C)n3)nc2CN1C(=O)N[C@H](CN(C)C)c1ccccc1` [Example 2, (R)—N—((S)-2-(Dimethylamino)-1-phenylethyl)-6-methyl-2-(((1-methyl-TH-pyrazol-3-yl)methyl)amino)-5,8-dihydropyrido[3,4-d]pyrimidine-7(6H)-carboxamide], the IC50 in experiment [1] was 24.2 nM; in experiment [2], 0.0286 µM; on CDK7/Cyclin H/MAT1, 21.9 nM; in experiment [3], 0.0459 µM; in experiment [4] it was 0.0756 µM; on CDK5/p25, 6310 nM. Besides, the IC50 at CDK12/CyclinK was greater than 10000 nM. The “selectivity for CDK2/CDK7 compared with Janssen-01” value at CDK7/Cyclin H/MAT1 is given as “significantly better selectivity for CDK2/CDK7 than Janssen-01”. In the experiment with various tumor cell lines, the “inhibitory activity against the various tumor cell lines (in words)” value was “high inhibitory activity”.

As to `C[C@H](Nc1ncc2c(n1)CN(C(=O)N[C@H](CN(C)C)c1ccccc1)[C@H](C)C2)c1ccccn1` [Example 6, (R)—N—((S)-2-(Dimethylamino)-1-phenylethyl)-6-methyl-2-(((S)-1-(pyridin-2-yl)ethyl)amino)-5,8-dihydropyrido[3,4-d]pyrimidine-7(6H)-carboxamide], the IC50 was 27.7 nM in experiment [1]; 0.0237 µM in experiment [2]; 28.4 nM on CDK7/Cyclin H/MAT1; 0.0177 µM in experiment [3]; 0.0469 µM in experiment [4]; 6420 nM on CDK5/p25. In addition, on CDK12/CyclinK, the IC50 is greater than 10000 nM. Moreover, the “selectivity for CDK2/CDK7 compared with Janssen-01” value at CDK7/Cyclin H/MAT1 was “significantly better selectivity for CDK2/CDK7 than Janssen-01”. The “inhibitory activity against the various tumor cell lines (in words)” value with various tumor cell lines is “high inhibitory activity”.
